Experiments:
Wild-type βAR = biological target: T1, Wild-type βAR (Mesocricetus auratus, UniProt P04274); experiment: Adenylyl cyclase stimulation in membranes of mouse L cells expressing the wild-type receptor; type: biochemical, hamster
T1 construct: pSVHAC contains the full length hamster ß₂AR cDNA cloned into the EcoRI site of pSVL; expressed in transfected cells; host or cells: mouse L cells (clonal lines, membranes)
Description: (§1) Expression in mammalian cells. For the establishment of clonal cell lines expressing mutant receptors, the plasmid DNAs were transfected into mouse L cells by the CaPO₄ procedure. […] The precipitate was added to the media covering subconfluent monolayers of mouse L cells in 100 mm petri dishes and incubated at 37°C for 4 hrs. The media was removed and the cells were washed once with Dulbecco's modified minimal essential medium (DMEM). […] DMEM containing 10% fetal bovine serum was then added to the monolayers and the cells were incubated at 37°C for 12-18 hrs. The medium was changed to DMEM containing 10% fetal bovine serum and […] genticin to select for cells containing the expression vector. […] Individual colonies were isolated and expanded into cell lines.
(§2) Membranes were prepared from L cell monolayers by hypotonic lysis in 10 mM Tris, pH 7.5 for 10 min at 4°C.
(§3) The reaction was allowed to proceed for 30 min at 30°C before it was quenched at 4°C with an excess of unlabeled ATP. The ³²P-cAMP produced was determined by Dowex and alumina chromatography, as described by Salomon et al., supra.
Data Analysis. […] The Michaelis-Menton equation was used: V=Vmax[A]/Kact+[A], where V is the level of cyclase stimulation (in pmol ³²P-cAMP/mg protein/min) measured at a given agonist concentration [A], and Vmax is the calculated maximal stimulation at infinite agonist concentration.

[Ser^113]βAR = biological target: T2, [Ser^113]βAR (Mesocricetus auratus, UniProt P04274, D113S); experiment: Adenylyl cyclase stimulation in membranes of mouse L cells expressing the mutant receptor; type: biochemical, hamster; details: result in words, acids compared with the corresponding esters
T2 construct: pSVHAC contains the full length hamster ß₂AR cDNA cloned into the EcoRI site of pSVL; expressed in transfected cells; host or cells: mouse L cells (clonal lines, membranes)
Description: Mutagenesis of the ßAR gene. […] Other standard cloning techniques were performed as described by the former Manual and would be easily reproduced by anyone trained in molecular biology. An oligonucleotide 19 nucleotides in length complementary to the phage DNA surrounding the codon for Asp¹¹³ were synthesized using an Applied Biosystems Model 3A DNA synthesizer. The oligonucleotide contained mismatched positions in order to convert the codon for Asp¹¹³ (GAT) to Ser ([…]). The oligonucleotide was annealed to the phage DNA for priming and extended using Klenow DNA polymerase and T4 DNA ligase. […] The ßAR gene in this vector utilizes the SV40 early promoter, the modified splice signal, and the ßAR polyadenylation site for expression. The ligated mixture was transformed into E. coli strain DH5 (Bethesda Research Laboratories) and ampicillin resistant colonies were screened by filter hybridization using the oligonucleotide corresponding to the mutation as the hybridization probe. Plasmids were isolated from several hybridization positive colonies and mapped to insure the proper DNA insert was contained in the clone. The mutations were resolved by retransformation of the plasmid DNA into E. coli. Mutant plasmid containing colonies were again isolated by filter hybridization as above. Plasmid DNA was isolated from overnight cultures of cells by alkaline lysis and twice banding in CsCl-ethidium bromide equilibrium density gradients. […] The purity of the plasmid preparation was tested by retransformation of the DNA into E. coli followed by colony hybridization. […] Plasmid DNA was isolated as above and confirmed by restriction mapping.
as §1, §2, §3
Data Analysis. Activation constant (Kact) values for adenylyl cyclase stimulation were obtained by computer assisted nonlinear regression analysis of curves generated in the presence of increasing concentrations of compounds. The Michaelis-Menton equation was used: V=Vmax[A]/Kact+[A], where V is the level of cyclase stimulation (in pmol ³²P-cAMP/mg protein/min) measured at a given agonist concentration [A], and Vmax is the calculated maximal stimulation at infinite agonist concentration.

[Ser¹¹³]ßAR = biological target: T3, [Ser¹¹³]ßAR (Mesocricetus auratus, UniProt P04274, D113S); parameters: species or system hamster; details: COS-7 cell membranes; equilibrium binding
T3 construct: pSVHAC contains the full length hamster ß₂AR cDNA cloned into the EcoRI site of pSVL; expressed in transfected cells; host or cells: COS-7 cells (membranes)
Description: Membrane Preparation. COS-7 cell monolayers were washed 3 times in PBS, scraped from the flask with a rubber policeman, and centrifuged at 2000 x g for 5 min. The cell pellet was resuspended in 75 mM Tris, pH 7.4, 12.5 mM MgCl₂, […] EDTA (TME buffer) at a concentration of 10⁸ cells/ml, then diluted 1:5 with water and lysed by freezing in liquid N₂ and thawing with vigorous vortexing. Nuclei were removed by centrifugation over a cushion of 60% sucrose at 2500 x g for 15 min. The upper layer was collected, membranes pelleted by centrifugation at 40,000 x g for 15 min,and resuspended in TME at a protein concentration of 1-2 mg/ml.
Receptor Assays. ¹²⁵I-CYP binding to membranes was measured in a final volume of 250 ul of TME buffer, containing […] of membrane protein and 225 pM ¹²⁵I-CYP for 90 min at 23°C, as previously described Dixon et al. (1987), supra. Membranes were collected by filtration on GF/C glass fiber filters and bound ¹²⁵I-CYP was detected with a gamma counter. Nonspecific binding, measured in the presence of […] alprenolol, was subtracted from the total binding.

T2 sequence (P04274 whole entry D113S): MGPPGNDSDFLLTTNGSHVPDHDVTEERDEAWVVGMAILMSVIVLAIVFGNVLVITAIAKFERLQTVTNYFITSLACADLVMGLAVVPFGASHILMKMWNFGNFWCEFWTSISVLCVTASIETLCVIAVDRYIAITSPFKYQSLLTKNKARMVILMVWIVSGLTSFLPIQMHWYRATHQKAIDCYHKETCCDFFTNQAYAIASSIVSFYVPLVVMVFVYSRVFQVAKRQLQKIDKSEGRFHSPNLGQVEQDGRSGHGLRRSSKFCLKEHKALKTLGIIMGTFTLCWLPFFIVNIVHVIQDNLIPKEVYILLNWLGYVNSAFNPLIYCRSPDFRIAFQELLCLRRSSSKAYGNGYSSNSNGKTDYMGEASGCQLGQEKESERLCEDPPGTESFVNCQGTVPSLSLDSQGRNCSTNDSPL
T1 sequence (P04274 whole entry): as the sequence (P04274 whole entry D113S) above, with S113D counted along it
T3 sequence (P04274 whole entry D113S): as the sequence (P04274 whole entry D113S) above

SMILES	activation of [Ser¹¹³]ßAR ([Ser^113]βAR)	other results
CNC[C@H](O)c1ccc(O)c(O)c1 [Compound 2, epinephrine]		EC50 (Wild-type βAR): 300 nM
CCOC(=O)CCc1ccc(O)c(O)c1 [Compound 5]	activated	
O=C(O)CCc1ccc(O)c(O)c1 [Compound 6]	less effective	
COC(=O)/C=C/c1ccc(O)c(O)c1 [Compound 7]	activated	
O=C(O)/C=C/c1ccc(O)c(O)c1 [Compound 8]	less effective	
CCOC(=O)C(=O)Cc1ccc(O)c(O)c1 [Compound 9]	activated	
O=C(O)C(=O)Cc1ccc(O)c(O)c1 [Compound 10]	less effective	
CCOC(=O)Cc1ccc(O)c(O)c1 [Compound 11]	activated	
CCOC(=O)C(O)c1ccc(O)c(O)c1 (centres unmarked) [Compound 12]	weakly	
CCOC(=O)CC(O)c1ccc(O)c(O)c1 (centres unmarked) [Compound 13]	activated	
CC(C)(C)NCC(O)COc1cccc2[nH]c(C#N)c([125I])c12 (centres unmarked) [¹²⁵I-CYP, ¹²⁵I-cyanopindolol]		¹²⁵I-CYP binding ([Ser¹¹³]ßAR): did not bind detectable levels

Reference: patent EP0453119A1, “Modified beta adrenergic receptor” (MERCK & CO. INC., priority 1990, dated 1991)
